Data taken from ChEMBL document CHEMBL1201862, “PubChem BioAssay data set” (2004).
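Interpolation was linear, between the two tested concentrations surrounding the appropriate level; five concentrations were tested over 48 hours in 96-well plates. GI50: concentration for 50% inhibition of growth.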 Activity calls are given as the source filed them. Rule as the data show it: active = GI50 up to about 1.1 µM and inactive = higher.

Assays:
Assay in all cases: DTP human tumour cell line panel, 48 h
786-0 = system: 786-0
A498 = system: A498
A549 = system: A549
ACHN = system: ACHN
BT-549 = system: BT-549
CAKI-1 = system: CAKI-1
CCRF-CEM = system: CCRF-CEM
COLO 205 = system: COLO 205
DU-145 = system: DU-145
EKVX = system: EKVX
HCC 2998 = system: HCC 2998
HCT-116 = system: HCT-116
HCT-15 = system: HCT-15
HL-60 = system: HL-60
HOP-62 = system: HOP-62
HOP-92 = system: HOP-92
HT-29 = system: HT-29
Hs-578T = system: Hs-578T
IGROV-1 = system: IGROV-1
K562 = system: K562
KM12 = system: KM12
LOX IMVI = system: LOX IMVI
M14 = system: M14
MCF7 = system: MCF7
MDA-MB-231 = system: MDA-MB-231
MDA-MB-435 = system: MDA-MB-435
MDA-N = system: MDA-N
MOLT-4 = system: MOLT-4
Malme-3M = system: Malme-3M
NCI-H226 = system: NCI-H226
NCI-H23 = system: NCI-H23
NCI-H460 = system: NCI-H460
NCI-H522 = system: NCI-H522
NCI/ADR-RES = system: NCI/ADR-RES
OVCAR-3 = system: OVCAR-3
OVCAR-4 = system: OVCAR-4
OVCAR-5 = system: OVCAR-5
OVCAR-8 = system: OVCAR-8
PC-3 = system: PC-3
RPMI-8226 = system: RPMI-8226
RXF 393 = system: RXF 393
SF-268 = system: SF-268
SF-295 = system: SF-295
SF-539 = system: SF-539
SK-MEL-28 = system: SK-MEL-28
SK-MEL-2 = system: SK-MEL-2
SK-MEL-5 = system: SK-MEL-5
SK-OV-3 = system: SK-OV-3
SN12C = system: SN12C
SNB-19 = system: SNB-19
SNB-75 = system: SNB-75
SR = system: SR
SW-620 = system: SW-620
T47D = system: T47D
TK-10 = system: TK-10
U-251 = system: U-251
UACC-257 = system: UACC-257
UACC-62 = system: UACC-62
UO-31 = system: UO-31

COc1ccccc1/C=C1\Sc2scc(-c3cccc([N+](=O)[O-])c3)[n+]2C1=O
GI50 (786-0): 2.76 µM (inactive) | GI50 (A498): 21.3 µM (inactive) | GI50 (A549): 17.1 µM (inactive) | GI50 (ACHN): 3.06 µM (inactive) | GI50 (BT-549): 2.55 µM (inactive) | GI50 (CAKI-1): 2.43 µM (inactive) | GI50 (CCRF-CEM): 0.476 µM (active) | GI50 (COLO 205): 2.11 µM (inactive) | GI50 (DU-145): 13.5 µM (inactive) | GI50 (EKVX): 11.4 µM (inactive) | GI50 (HCC 2998): 10.4 µM (inactive) | GI50 (HCT-116): 4.69 µM (inactive) | GI50 (HCT-15): 2.11 µM | GI50 (HL-60): 0.26 µM (active) | GI50 (HOP-62): 13.9 µM (inactive) | GI50 (HOP-92): 4.98 µM (inactive) | GI50 (HT-29): 3.27 µM (inactive) | GI50 (Hs-578T): 18.5 µM (inactive) | GI50 (IGROV-1): 7.46 µM (inactive) | GI50 (K562): 2.79 µM (inactive) | GI50 (KM12): 10.8 µM (inactive) | GI50 (LOX IMVI): 1.71 µM (inactive) | GI50 (M14): 3.93 µM (inactive) | GI50 (MCF7): 2 µM (inactive) | GI50 (MDA-MB-231): 5.04 µM (inactive) | GI50 (MDA-MB-435): 4.99 µM (inactive) | GI50 (MDA-N): 2.87 µM (inactive) | GI50 (MOLT-4): 1.28 µM (inactive) | GI50 (Malme-3M): 3.3 µM (inactive) | GI50 (NCI-H226): 12.4 µM (inactive) | GI50 (NCI-H23): 10.4 µM (inactive) | GI50 (NCI-H460): 13.2 µM (inactive) | GI50 (NCI-H522): 1.34 µM (inactive) | GI50 (NCI/ADR-RES): 6.84 µM (inactive) | GI50 (OVCAR-3): 9.75 µM (inactive) | GI50 (OVCAR-4): 13.3 µM (inactive) | GI50 (OVCAR-5): 15.6 µM (inactive) | GI50 (OVCAR-8): 7.19 µM (inactive) | GI50 (PC-3): 15.7 µM (inactive) | GI50 (RPMI-8226): 3.18 µM (inactive) | GI50 (RXF 393): 4.58 µM (inactive) | GI50 (SF-268): 4.78 µM (inactive) | GI50 (SF-295): 17.5 µM (inactive) | GI50 (SF-539): 1.62 µM (inactive) | GI50 (SK-MEL-28): 15 µM (inactive) | GI50 (SK-MEL-2): 12.8 µM (inactive) | GI50 (SK-MEL-5): 2.53 µM (inactive) | GI50 (SK-OV-3): 13.2 µM (inactive) | GI50 (SN12C): 2.88 µM (inactive) | GI50 (SNB-19): 12.1 µM (inactive) | GI50 (SNB-75): 12.8 µM (inactive) | GI50 (SR): 2.19 µM (inactive) | GI50 (SW-620): 4.32 µM (inactive) | GI50 (T47D): 7.23 µM (inactive) | GI50 (TK-10): 2.83 µM (inactive) | GI50 (U-251): 14.9 µM (inactive) | GI50 (UACC-257): 7.11 µM (inactive) | GI50 (UACC-62): 8.51 µM (inactive) | GI50 (UO-31): 2.86 µM (inactive)
